Data as given in US7858820B2, “Solid compositions suitable for oral administration containing non-hygroscopic salts of L-carnitine and the alkanoyl L-carnitines with taurine chloride and glycine chloride” (Sigma-Tau Industrie Farmaceutiche Riunite S.p.A., priority 2001, dated 2010).
Counter-ions that a name gives are not always drawn.

How the values were obtained:
[1] = Hygroscopicity of the solid salts; type: physicochemical; conditions: for hygroscopicity of the starting material: remark in brackets on the reagent used
[2] = milieu with a high relative humidity content; U.S. Pat. No. 4,602,039; cited from earlier work

hygroscopicity of the starting material [1]	SMILES	further results
	CCC(=O)O[C@H](CC(=O)O)C[N+](C)(C)C [Example 2, Propionyl L-Carnitine Salt with Taurine Chloride]	hygroscopicity of the isolated solid ([1]; white crystalline solid as obtained): non-hygroscopic
	C[N+](C)(C)C[C@H](O)CC(=O)[O-].O=C(O)/C=C/C(=O)O [L-carnitine fumarate]	hygroscopicity of a prior-art salt [2]: highly non-hygroscopic
hygroscopic	NCC(=O)O [glycine hydrochloride]	
hygroscopic	CCC(=O)O[C@H](CC(=O)[O-])C[N+](C)(C)C [propionyl L-carnitine inner salt]	

SMILES	hygroscopicity of the starting material [1]	further results
CC(=O)O[C@H](CC(=O)[O-])C[N+](C)(C)C [acetyl L-carnitine inner salt]	hygroscopic	
